In brackets after ≈: the same amount, converted by molar mass.
What was measured:
[1] = Distribution coefficient, logD of the compound in water/PBS buffer at pH 7.4 at 25 degC after 20 mins by shake flask method; assay type: physicochemical
[2] = target: Serine/threonine-protein kinase MARK1 (Homo sapiens) (UniProt Q9P0L2); assay: Inhibition of human MARK1 (2 to 795 residues) assessed as remaining enzyme activity at 50 uM after 30 mins by 33P-ATP filter-binding assay
[3] = target: Ephrin type-B receptor 2 (Homo sapiens) (UniProt P29323); assay: Inhibition of human EPHB2 (560 to 987 residues) assessed as remaining enzyme activity at 50 uM after 30 mins by 33P-ATP filter-binding assay
[4] = target: Serine/threonine-protein kinase Nek6 (Homo sapiens) (UniProt Q9HC98); assay: Inhibition of human NEK6 (8 to 313 residues) assessed as remaining enzyme activity at 50 uM after 30 mins by 33P-ATP filter-binding assay
[5] = target: Serine/threonine-protein kinase Chk2 (Homo sapiens) (UniProt O96017); assay: Inhibition of human CHK2 (5 to 543 residues) assessed as remaining enzyme activity at 50 uM after 30 mins by 33P-ATP filter-binding assay
[6] = target: Serine/threonine-protein kinase 33 (Homo sapiens) (UniProt Q9BYT3); assay: Inhibition of human STK33 (1 to 514 residues) assessed as remaining enzyme activity at 50 uM after 30 mins by 33P-ATP filter-binding assay
[7] = target: Dual specificity protein kinase CLK2 (Homo sapiens) (UniProt P49760); assay: Inhibition of human CLK2 (138 to 499 residues) assessed as remaining enzyme activity at 50 uM after 30 mins by 33P-ATP filter-binding assay
[8] = Cytotoxicity against human HL60 cells assessed as cell growth inhibition after 48 hrs by MTT assay; assay type: functional; conditions: HL-60, 48 h
[9] = target: Protein-tyrosine kinase 6 (Homo sapiens) (UniProt Q13882); assay: Inhibition of human BRK (1 to 451 residues) assessed as remaining enzyme activity at 50 uM after 30 mins by 33P-ATP filter-binding assay
[10] = target: MAP/microtubule affinity-regulating kinase 4 (Homo sapiens) (UniProt Q96L34); assay: Inhibition of human MARK4 (2 to 752 residues) assessed as remaining enzyme activity at 50 uM after 30 mins by 33P-ATP filter-binding assay
[11] = target: Interleukin-1 receptor-associated kinase 4 (Homo sapiens) (UniProt Q9NWZ3); assay: Inhibition of human IRAK4 (14 to 460 residues) assessed as remaining enzyme activity at 50 uM after 30 mins by 33P-ATP filter-binding assay
[12] = Cytotoxicity against human MIAPaCa2 cells assessed as cell growth inhibition after 48 hrs by MTT assay; assay type: functional; conditions: MIA PaCa-2, 48 h
[13] = target: Serine/threonine-protein kinase pim-1 (Homo sapiens) (UniProt P11309); assay: Inhibition of human PIM1 (2 to 313 residues) assessed as remaining enzyme activity at 50 uM after 30 mins by 33P-ATP filter-binding assay
[14] = target: Interleukin-1 receptor-associated kinase 1 (Homo sapiens) (UniProt P51617); assay: Inhibition of human IRAK1 (1 to 712 residues) assessed as remaining enzyme activity at 50 uM after 30 mins by 33P-ATP filter-binding assay
[15] = target: Maternal embryonic leucine zipper kinase (Homo sapiens) (UniProt Q14680); assay: Inhibition of human MELK (2 to 651 residues) assessed as remaining enzyme activity at 50 uM after 30 mins by 33P-ATP filter-binding assay
[16] = Cell cycle arrest in human HL60 cells assessed as accumulation at G1 phase at 1 uM (reference value: 59 %); assay type: functional, cell-based; conditions: HL-60
[17] = Thermodynamic equilibrium solubility in PBS buffer at 120 ug/ml at pH 7.4 by HPLC analysis; assay type: physicochemical; conditions: read-out: Therm_solubility
[18] = target: Death-associated protein kinase 1 (Homo sapiens) (UniProt P53355); assay: Inhibition of human DAPK1 (1 to 363) assessed as remaining enzyme activity at 50 uM after 30 mins by 33P-ATP filter-binding assay
[19] = target: Mitogen-activated protein kinase 11 (Homo sapiens) (UniProt Q15759); assay: Inhibition of human p38beta MAPK (1 to 364 residues) assessed as remaining enzyme activity at 50 uM after 30 mins by 33P-ATP filter-binding assay
[20] = Stability in pH 4 buffer at 120 ug/ml after 8 hrs by RP-HPLC analysis; assay type: physicochemical; conditions: pH 4, 8 h
[21] = target: Protein kinase C alpha type (Homo sapiens) (UniProt P17252); assay: Inhibition of human PKCalpha (1 to 672 residues) assessed as remaining enzyme activity at 50 uM after 30 mins by 33P-ATP filter-binding assay
[22] = target: Myosin light chain kinase, smooth muscle (Homo sapiens) (UniProt Q15746); assay: Inhibition of human SmMLCK (475 to 838 residues) assessed as remaining enzyme activity at 50 uM after 30 mins by 33P-ATP filter-binding assay
U-251 = assay: Cytotoxicity against human U251 cells assessed as cell growth inhibition after 48 hrs by MTT assay; assay type: functional; conditions: U-251, 48 h
[23] = target: Dual specificity mitogen-activated protein kinase kinase 1 (Homo sapiens) (UniProt Q02750); assay: Inhibition of human MKK1 (2 to 393 residues) assessed as remaining enzyme activity at 50 uM after 30 mins by 33P-ATP filter-binding assay
[24] = Cytotoxicity against human PANC1 cells assessed as cell growth inhibition after 48 hrs by MTT assay; assay type: functional; conditions: PANC-1, 48 h
[25] = target: Homeodomain-interacting protein kinase 3 (Homo sapiens) (UniProt Q9H422); assay: Inhibition of human HIPK3 (161 to 562 residues) assessed as remaining enzyme activity at 50 uM after 30 mins by 33P-ATP filter-binding assay
[26] = target: Mitogen-activated protein kinase kinase kinase 1 (Homo sapiens) (UniProt Q13233); assay: Inhibition of human MEKK1 (877 to1563 residues) assessed as remaining enzyme activity at 50 uM after 30 mins by 33P-ATP filter-binding assay
[27] = target: Ribosomal protein S6 kinase beta-1 (Homo sapiens) (UniProt P23443); assay: Inhibition of human S6K1 assessed as remaining enzyme activity at 50 uM after 30 mins by 33P-ATP filter-binding assay
MAP4K2 = assay: Inhibition of human GCK (2 to 812 residues) assessed as remaining enzyme activity at 50 uM after 30 mins by 33P-ATP filter-binding assay
Homo sapiens = organism: Homo sapiens; assay: Inhibition of human PKA assessed as remaining enzyme activity at 50 uM after 30 mins by 33P-ATP filter-binding assay
[28] = Cell cycle arrest in human HL60 cells assessed as accumulation at G1 phase at 5 uM (reference value: 59 %); assay type: functional, cell-based; conditions: HL-60
[29] = target: Proto-oncogene tyrosine-protein kinase Src (Homo sapiens) (UniProt P12931); assay: Inhibition of human Src (1 to 536 residues) assessed as remaining enzyme activity at 50 uM after 30 mins by 33P-ATP filter-binding assay

Cc1cc(=O)c2c(O)cc(O)c([C@H]3CCN(C)C[C@H]3O)c2o1 [ROHITUKINE]
logD at 20 min [1]: -0.55
Activity [2]: 67%
Activity [3]: 81%
Activity [4]: 84%
Activity [5]: 60%
Activity [6]: 54%
Activity [7]: 45%
GI50 [8]: 10 µM
Activity [9]: 93%
Activity [10]: 92%
Activity [11]: 75%
GI50 [12]: 19 µM
Activity [13]: 27%
Activity [14]: 55%
Activity [15]: 80%
Activity [16]: 34%
solubility thermodynamic [17]: 16.9 mg/mL (≈ 55.5 mM)
Activity [18]: 96%
Activity [19]: 76%
Stability [20]: Stable
Activity [21]: 78%
Activity [22]: 78%
GI50 (U-251): 32 µM
Activity [23]: 27%
GI50 [24]: 22 µM
Activity [25]: 100%
Activity [26]: 83%
Activity [27]: 79%
Activity (MAP4K2): 17%
Activity (Homo sapiens): 88%
Activity [28]: 56%
Activity [29]: 61%

From ChEMBL document CHEMBL3826966, “A chromatography-free isolation of rohitukine from leaves of Dysoxylum binectariferum: Evaluation for in vitro cytotoxicity, Cdk inhibition and physicochemical properties” (Bioorg Med Chem Lett, 2016)
